Common to all, as to type: cell-based, human
For experiment [1], the system named is non-specific IFN-γ production in blood from BD heparin tube (endotoxin contamination). The experiment can be described thus: Polymyxin B in endotoxin-contaminated BD heparin tubes, IFN-γ assay (Example 4). As to the method: Blood was taken from four healthy donors collected in Li-Heparin tubes. […] Tubes were mixed to resolublize the heparin and to ensure blood contact with tube plastic.
Aliquots of 1.0 mL from each heparin tube type were then transferred to 13/75 mm plain gel tubes. The blood was then incubated at 37° C. for 20 hours before the tubes were centrifuged and the IFN-γ concentration of the plasma determined by ELISA.

Experiment [2] relates to IFN-γ production in blood (CMV antigen). Nature of the experiment: Effect of polymyxin B on IFN-γ production in blood in QuantiFERON-CMV tubes (Example 2). The method, then:
The effect of polymyxin B on IFN-γ production was assessed. Blood from 8 healthy donors was added to QuantiFERON-CMV blood collection tubes (1.0 mL per tube). One tube for each donor had 1.0 μg/mL of polymyxin B added, whilst the second tube served as a control. Blood was incubated at 37° C. for 20 hours before the tubes were centrifuged and the resultant concentration of IFN-γ determined by ELISA.

The subject of experiment [3] is non-specific IFN-γ production in blood containing lipopolysaccharides (LPS). Nature of the experiment: Effect of polymyxin B on non-specific IFN-γ production in blood containing LPS (Example 3). As to the method: In this Example, blood from 8 healthy donors was collected in Li-Heparin tubes. Aliquots of 1.0 mL were prepared in 13/75 mm plain gel tubes. An endotoxin, lipopolysaccharides (LPS), was added to each tube of blood at a concentration of 1 μg/mL. Various concentrations of polymyxin B were added to each of the tubes. The blood was then incubated at 37° C. for 20 hours before the tubes were centrifuged and the IFN-γ concentration of the plasma determined by ELISA.

In experiment [4] the test system is immune response to lipopolysaccharide (LPS), IFN-γ in blood. Nature of the experiment: Effect of sushi peptide on immune response of blood to LPS (Example 6, FIGS. 1-2). The settings on record: sushi peptide 0-10 μg/ml, antigens CMV and tetanus toxoid, FIGS. 2a-2c. The method, then:
Heparinized blood samples were collected into Li-Hep Vacuette (registered trade mark) tubes (Greiner Bio-one, Germany).
Aliquots of 1 ml of the blood samples were incubated with various concentrations of Lipopolysaccharide (Sigma, Australia) and a sushi peptide ([…]) [SEQ ID NO:1] (American Peptide Company, California) in nil blood collection tubes (QuantiFERON [registered trade mark]-TB Gold In-Tube, Cellestis Ltd, Australia) either as supplied or spiked with tetanus toxoid (1001 fu/ml), or in CMV tubes (QuantiFERON-CMV, Cellestis Ltd, Australia).
Stimulated blood samples were incubated for 16-24 hr at 37° C., after which the tubes were centrifuged and the plasma harvested. The amount of IFN-γ present in each plasma sample was then quantified using the QuantiFERON (registered trade mark)-TB Gold ELISA (Cellestis Limited, Australia) as per the manufacturer's instructions.
ELISA optical density values for IFN-γ standards run on each ELISA plate were used to construct a standard curve from which the amount of IFN-γ present in each of the test plasma samples was converted to IU/mL values.

Experiment [5] relates to IFN-γ production in stimulated whole blood.

This note sets out measurements from patent US10578612B2, “Diagnostic assay” (priority 2010, dated 2020).

Several values for one entry are separate records, joined by “and”; a condition that tells them apart may be missing. Equal values may be shown once. Bridge positions count the residues as written; N and C are the ends. Square brackets hold non-standard residues; d marks the D form. Peptide text beside a SMILES is read from it. * marks the point of attachment. Octanoyl(6-Me) = CCC(C)CCCCC(=O)*; Dab = NCC[CH](N)C(=O)O

`CCC(C)CCCCC(=O)NC(CCN)C(=O)NC(C(=O)NC(CCN)C(=O)NC1CCNC(=O)C(C(C)O)NC(=O)C(CCN)NC(=O)C(CCN)NC(=O)C(CC(C)C)NC(=O)C(Cc2ccccc2)NC(=O)C(CCN)NC1=O)C(C)O` (stereo not drawn) [polymyxin B, N-[4-amino-1-[[1-[[4-amino-1-oxo-1-[[6,9,18-tris(2-aminoethyl)-15-benzyl-3-(1-hydroxyethyl)-12-(2-methylpropyl)-2,5,8,11,14,17,20-heptaoxo-1,4,7,10,13,16,19-heptazacyclotricos-21-yl]amino]butan-2-yl]amino]-3-hydroxy-1-oxobutan-2-yl]amino]-1-oxobutan-2-yl]-6-methyloctanamide] ({Octanoyl(6-Me)}-[Dab]T[Dab][Dab][Dab]FL[Dab][Dab]T; lactam 4-C; configuration not given here): the “effect on non-specific IFN-γ production in BD heparin tubes” value in experiment [1] (100 ug/mL polymyxin B, BD heparin tubes known to contain endotoxin) is “significantly reduced”. In addition, in experiment [1] (blood from BD heparin tube (endotoxin contaminated) with 100 μg/mL polymyxin B, 37° C. 20 hours, one line per subject), the “IFN-gamma, BD Heparin Tube + 100 μg/mL Polymyxin B” value was 0.51 IU/mL and 0.11 IU/mL (2×) and 0.24 IU/mL. The “effect on the production of IFN-γ” value in experiment [2] (1 μg/mL polymyxin B, CMV antigen) is listed as “does not adversely affect the production of IFN-γ”. Besides, the “IFN-γ concentration, CMV + PMB 1.0 μg/mL” value in experiment [2] (QuantiFERON-CMV tube, 1.0 μg/mL polymyxin B, 37° C. 20 hours, ELISA, one line per subject) was 8.35 IU/mL and 0.04 IU/mL (2×) and 0.08 IU/mL and 0.51 IU/mL and 1.53 IU/mL and 24.28 IU/mL and 0.05 IU/mL and 2.3 IU/mL and 0.55 IU/mL. In addition, the “IFN-γ concentration, 1 μg/mL LPS, polymyxin 0.1 ug/mL” value in experiment [3] (blood + 1 μg/mL LPS, polymyxin B 0.1 ug/mL, 37° C. 20 hours, one line per subject) was 0.67 IU/mL and 0.44 IU/mL and 9.28 IU/mL and 2.87 IU/mL and 0.32 IU/mL and 2.00 IU/mL and 0.79 IU/mL and 0.41 IU/mL. The “IFN-γ concentration, 1 μg/mL LPS, polymyxin 1 ug/mL” value in experiment [3] (blood + 1 μg/mL LPS, polymyxin B 1 ug/mL, 37° C. 20 hours, one line per subject) was 0.41 IU/mL and 0.22 IU/mL and 3.31 IU/mL and 2.57 IU/mL and 0.21 IU/mL and 1.17 IU/mL and 0.50 IU/mL and 0.14 IU/mL. Also, the “IFN-γ concentration, 1 μg/mL LPS, polymyxin 10 ug/mL” value in experiment [3] (blood + 1 μg/mL LPS, polymyxin B 10 ug/mL, 37° C. 20 hours, one line per subject) was 0.25 IU/mL and 0.11 IU/mL (2×) and 1.96 IU/mL and 1.41 IU/mL and 0.36 IU/mL and 0.32 IU/mL and 0.12 IU/mL. Also, the “IFN-γ concentration, 1 μg/mL LPS, polymyxin 100 ug/mL” value in experiment [3] (blood + 1 μg/mL LPS, polymyxin B 100 ug/mL, 37° C. 20 hours, one line per subject) is 0.02 IU/mL (3×) and 0.05 IU/mL (2×) and 0.04 IU/mL and 0.18 IU/mL and 0.06 IU/mL. Also, the “effect on non-specific IFN-γ production” value in experiment [3] (samples containing endotoxin (LPS 1 μg/mL)) is on record as “caused a reduction in non-specific IFN-γ production”.

“HAEHKVKIGVEQKYGQFPQGTEVTYTCSGNYFLM (Sushi peptide)”: the “effect on immune response to LPS” value in experiment [4] is on record as “inhibition of an immune response to lipopolysaccharide (LPS)”.

Take “polyinosinic acid-polycytidylic acid [PolyI:C]”: in experiment [5], the “IFN-γ response to poly(I:C) alone” value is reported as “relatively small” and the “effect on IFN-γ production with antigen” value is listed as “increases the IFN-γ production”.
